Measurements as given in patent EP0559845B1, “Use of compounds in preventing endotoxin shock” (priority 1991, dated 1992).
Entries after “also recorded” stand apart in the source; their conditions may differ.

Experiments:
[1] = system: mice (strain C57BL/10); experiment: Protection of mice against lethal endotoxemia; assay type: in vivo; settings: for mice survived: intravenous
Protocol: Eight week old mice (strain C57BL/10) were allowed to rest for at least 7 days following their arrival and were sexually segregated and housed at 5 per cage with food and water ad libitum. Intravenous injection of a GTPase inhibiting compound (lipid X dissolved in saline as described above) and/or lipopolysaccharide was achieved by the retroorbital sinus route using a 27 gauge needle. No more than 0.1 ml of fluid was injected at a time. Just prior to injection, the mice were lightly anesthetized with ether. Following the injection, mice were observed every 0.5-6 hours and the time of death was recorded. In a few experiments, mice were injected by the intraperitoneal route with solutions of lipid X and/or lipopolysaccharide similar to those described above.
The lethal dose of E. coli endotoxin was determined both for the intravenous and for the intraperitoneal challenge. The lethal dose that killed 100% of the mice (LD100) was 250 µg intravenously and 500 µg intraperi toneally. (It is important to standardize each lot of endotoxin with each lot of mice.) To determine the approximate dose of lipid X needed to protect against a lethal challenge of endotoxin, mice were pretreated with lipid X intraperitoneally 2 hours before challenge with 1500 µg of endotoxin, which is 3 times the LD100 dose. Pretreatment of mice with lipid X appeared to prolong the time to death four-fold (from about 20 hours to 80 hours).
Because both lipid X and lipopolysaccharide (LPS) were given intraperitoneally in these preliminary experiments, the possibility existed of slow or variable rates of absorption. Consequently, an intravenous challenge route was selected to test for protective efficiency. Mice were given 750 µg of lipid X from 24 hours prior to 6 hours after endotoxin challenge with 1-2 LD100 doses. Forty-one percent of mice receiving 500 µg lipid X from 6 hours prior to endotoxin challenge through 1 hour after LPS challenge survived. When a lower endotoxin challenge dose (250 µg) was used, 81% of the mice survived if treated with lipid X from 1 hour prior to through 4 hours post LPS challenge. […] Perhaps this is due to the fact that those animals were anesthetized twice in a short period and received the toxic endotoxin challenge before receiving lipid X. The reversal of the lethal toxicity of endotoxin at times as late as 4 hours after endotoxin challenge is especially striking. […] By 4 hours after injection of the 250 µg of intravenous lipopolysaccharide, the mice had stopped normal behavior, i.e. nesting had stopped, decreased spontaneous activity occurred, and the animals were shaking.

[2] = system: sheep; experiment: Protection of sheep against the lethal effects of intravenous lipopolysaccharide; assay type: in vivo
Protocol: (§1) Mixed breed sheep weighing 30-70 kg were obtained from the University of Wisconsin Experimental Farms. Sheep were prepared as follows: at least 24 hours before each experiment, catheters were percutaneously placed in the pulmonary artery. Any other catheterizations that were required for infusion were done at this time. All studies were performed on awake, unrestrained sheep placed in portable stanchions with food and water ad libitum. Electronically calculated pulmonary artery pressures as well as heart rates were recorded at various intervals on a polygraph. To ensure a stable baseline prior to the injection of test compounds, approximately 1 hour of baseline measurements were recorded.
In view of the partial protection afforded by lipid X against LPS-induced lethality in mice, the possibility of such protection was also examined in sheep. The sheep system has the important advantage of permitting the administration of much larger doses of lipid X relative to LPS. It is the ratio of lipid X to endotoxin that is critical for survival. […] It is evident that a 5-10 fold excess of lipid X (on a weight basis) over LPS is required to ensure survival. (Because of the inherent LPS resistance of mice, their small body volume, and the limited solubility of lipid X in water, it is impossible to achieve 5-10 fold excess of lipid X relative to LPS in the mouse system.)

[3] = system: sheep; experiment: Toxicity of lipid X in sheep; assay type: in vivo; settings: 40 sheep injected
Protocol: as §1
To test for the toxicity of lipid X in mice, C57BL/10 mice were challenged with 750, 2000 or 5000 µg of lipid X intraperitoneally (12 mice) or with 750, 1500 or 3000 µg intravenously (7 mice). […] Consequently, lipid X appeared to be nontoxic in mice, as in sheep.
About 30 sheep were examined by Burhop with regard to lipid X toxicity.

[4] = system: LPS-induced GTPase activity in membranes isolated from RAW 264.7 cells; experiment: GTPase assay: effect of compounds on LPS-stimulated GTPase activity in macrophage membranes (release of 32Pi from γ-32P-GTP); assay type: biochemical
Text: We sought to directly evaluate the influence of LPS on possible G-protein function by examining agonist-enhanced GTPase activity, which is a hallmark of G-protein action. Moreover, because macrophages are one of the key cell types in the release of toxic mediators following an LPS challenge, we first assessed the capacity of LPS to influence GTPase activity in membranes isolated from RAW 264.7 cells, which is a highly LPS-responsive macrophage cell line. In these studies, GTPase activity was measured using a standard assay. The activity was determined using 2 µM γ-^32P-GTP in the presence of 0.1 mM ATP and 0.2 mM of the non-hydrolyzable ATP analog, AMPPNP, in order to minimize nonspecific nucleotidase activity in the membrane preparations.
The reaction is initiated by the addition of the γ-^32P-GTP and the mixture incubated at 30-37°C for 15 to 30 minutes. The reaction is terminated by the addition of 500µl of 5% trichloroacetic acid and 500µl of 0.1gm/ml acid-activated charcoal in 5% trichloroacetic acid. The samples are centrifuged at 14,000xg for 10 minutes, and a 550µl aliquot of the supernatant is removed for scintillation counting. The supernatant will contain the released ^32Pi. The extent of GTPase inhibition is measured by the decrease in the amount of ^32Pi released from γ-^32P-GTP. Appropriate controls include mixtures with one of the following omitted: (i) test compound, (ii) endotoxin, and (iii) ATP, ADP or AMPPNP.
The membranes are resuspended in 20 mM HEPES (pH 7.4), 1 mM dithiothreitol, 1 mM EDTA and 10 µg leupeptin/ml. Aliquots are stored at -70°C until assayed.

[5] = system: FCS-enhanced GTPase activity; experiment: Inhibition of FCS-enhanced (non-LPS-stimulated) GTPase activity in macrophage membranes; assay type: biochemical; settings: 3 mg/ml lipid X; 10% FCS
Protocol: With respect to non-LPS-stimulated GTPase activity in this macrophage system, we observed that 10% FCS (<0.1 ng endotoxin/ml serum by the Limulus amebocyte lysate method) induced a large degree of GTPase activation, whereas 3 mg/ml lipid X inhibited the FCS-enhanced GTPase activity by ∼ 50%.

[6] = system: sheep; settings: 40-1000 µg/kg; reported in the literature; cited from earlier work

CCCCCCCCCCC[C@@H](O)CC(=O)N[C@H]1[C@@H](OP(=O)(O)O)O[C@H](CO)[C@@H](O)[C@@H]1OC(=O)C[C@H](O)CCCCCCCCCCC [lipid X]
mice survived ([1]; endotoxin challenge 250 µg, lipid X from 1 hour prior through 4 hours post LPS challenge): 81%
mice survived ([1]; printed '500 µg lipid X', from 6 hours prior to endotoxin challenge through 1 hour after): Forty-one
prevention of lethal endotoxicity on late treatment ([1]; lipid X given 6 hours after lipopolysaccharide): appears to prevent lethal endotoxicity
prolongation of the time to death ([1]; lipid X intraperitoneally 2 hours before 1500 µg endotoxin): four-fold
time to death ([1]; lipid X intraperitoneally 2 hours before 1500 µg endotoxin (3 times LD100), control about 20 hours): ~80 h
survival of subsequent LPS challenge ([2]; 100-200 µg/kg of lipid X during the pretreatment period): survived
Survivors ([2]; Lipid X 50 µg/kg 1 hour prior to endotoxin, Lipopolysaccharide 20 µg/kg): 1/2
Survivors ([2]; Lipid X 100 µg/kg 15 min. prior to endotoxin, Lipopolysaccharide 10 µg/kg): 3/3
Survivors ([2]; Lipid X 100 µg/kg 1 hour prior to endotoxin, Lipopolysaccharide 20 µg/kg): 4/4
Survivors ([2]; Lipid X 200 µg/kg 1 hour prior to endotoxin, Lipopolysaccharide 20 µg/kg): 3/3
excess of lipid X over LPS required to ensure survival ([2]; in vivo): 5-10 fold excess (on a weight basis
effect on pulmonary hypertension or fever induced by LPS ([2]; pretreatment with lipid X): does not completely prevent
effect on serious clinical symptoms (shortness of breath, weakness, diarrhea) ([2]; pretreatment with lipid X): alleviates some of the serious clinical symptoms
adverse complications of lipid X administration [3]: no serious adverse complications
inhibition of LPS-stimulated GTPase activity [4]: dose-dependent inhibition; also recorded: dose-dependently inhibiting
half-maximal inhibition of LPS-enhanced GTPase activity ([4]; LPS 300 µg/ml or 1 mg/ml): 23 to 1 molar ratio of lipid X to LPS
inhibition of FCS-enhanced GTPase activity [5]: ~50%
illness after lipid X by itself [6]: does not create marked illness or fever
